{"source": "patent US10933057B2", "about": "(priority 2017, dated 2021)", "test_system": "patients", "set-up": "species or system human", "conditions": "in vivo", "data": [{"smiles": "CCCCC(C)(O)C/C=C/[C@H]1[C@H](O)CC(=O)[C@@H]1CCCCCCC(=O)OC", "note": "(mixture of isomers) [Misoprostol]", "values": [{"measurement": "Pain (No pain −, Pain +)", "value": "+"}]}]}
